From patent US6737383B1, “Herbicidal oxadiazolidines” (priority 1999, dated 2004)

What was measured:
[1] = system: bedstraw; experiment: Test B pre/postemergence bedstraw; assay type: in vivo, Galium aparine
Outline: (§1)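 Response is a visual 0-to-10 score relative to untreated plants, where 0 means no effect and 10 means complete control, taken twelve to sixteen days after application. Treatments went onto soil at planting and onto foliage of 1- to 4-leaf plants, using a surfactant-containing non-phytotoxic solvent.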

[2] = system: blackgrass; experiment: Test B pre/postemergence blackgrass; assay type: in vivo, Alopecurus myosuroides
Outline: as §1

[3] = system: surinam grass; experiment: Test B pre/postemergence surinam grass; assay type: in vivo, Brachiaria decumbens
Outline: as §1

[4] = system: cocklebur; experiment: Test B pre/postemergence cocklebur; assay type: in vivo, Xanthium strumarium
Outline: as §1

[5] = system: corn; experiment: Test B pre/postemergence corn; assay type: in vivo, Zea mays
Outline: as §1

[6] = system: crabgrass; experiment: Test B pre/postemergence crabgrass; assay type: in vivo, Digitaria sanguinalis
Outline: as §1

[7] = system: giant foxtail; experiment: Test B pre/postemergence giant foxtail; assay type: in vivo, Setaria faberii
Outline: as §1

[8] = system: morningglory; experiment: Test B pre/postemergence morningglory; assay type: in vivo, Ipomoea hederacea
Outline: as §1

[9] = system: pigweed; experiment: Test B pre/postemergence pigweed; assay type: in vivo, Amaranthus retroflexus
Outline: as §1

[10] = system: rape; experiment: Test B pre/postemergence rape; assay type: in vivo, Brassica napus
Outline: as §1

[11] = system: soybean; experiment: Test B pre/postemergence soybean; assay type: in vivo, Glycine max
Outline: as §1

[12] = system: sugar beet; experiment: Test B pre/postemergence sugar beet; assay type: in vivo, Beta vulgaris
Outline: as §1

[13] = system: velvetleaf; experiment: Test B pre/postemergence velvetleaf; assay type: in vivo, Abutilon theophrasti
Outline: as §1

[14] = system: wheat; experiment: Test B pre/postemergence wheat; assay type: in vivo, Triticum aestivum
Outline: as §1

[15] = system: wild oat; experiment: Test B pre/postemergence wild oat; assay type: in vivo, Avena fatua
Outline: as §1

[16] = system: purple nutsedge; experiment: Test B pre/postemergence purple nutsedge; assay type: in vivo, Cyperus rotundus
Outline: as §1

[17] = Postemergence, Rate 62 g/ha, scale 0 to 10, 0 is no effect, 10 is complete control
[18] = Postemergence, Rate 125 g/ha, scale of 0 to 10 where 0 is no effect and 10 is complete control
[19] = Preemergence, Rate 125 g/ha, scale of 0 to 10 where 0 is no effect and 10 is complete control
[20] = Preemergence, Rate 250 g/ha, scale 0 (no effect) to 10 (complete control)
[21] = Rate 250 g/ha, Postemergence, scale 0 to 10, 0 is no effect, 10 is complete control
[22] = Rate 500 g/ha, Postemergence, scale 0 to 10, 0 is no effect, 10 is complete control
[23] = Rate 500 g/ha, Preemergence, scale 0 to 10 (0 no effect, 10 complete control)
[24] = Rate 62 g/ha, Preemergence, scale 0 to 10

CC(C)N(C(=O)n1oc(=O)n(C[C@H](C)Cl)c1=O)c1ccc(Cl)cc1 [Compound 748]
3: Plant response rating, Blackgrass [2, 19] | Plant response rating, B. signalgrass [3, 19] | B. signalgrass plant response rating [3, 20] | Crabgrass plant response rating [6, 18] | Rape plant response rating [10, 18] | Plant response rating, Soybean [11, 17] | Soybean plant response rating [11, 18]
2: Plant response rating, B. signalgrass [3, 17] | B. signalgrass plant response rating [3, 18] | Plant response rating, Crabgrass [6, 17] | Plant response rating, Giant foxtail [7, 17] | Plant response rating, Redroot pigweed [9, 17] | Sugarbeets plant response rating [12, 18] | Sugarbeets plant response rating [12, 20] | Plant response rating, Wild oats [15, 19] | Wild oats plant response rating [15, 20] | Nutsedge plant response rating [16, 23]
6: Bedstraw plant response rating [1, 18] | Blackgrass plant response rating [2, 18] | Giant foxtail plant response rating [7, 18] | Morningglory plant response rating [8, 18] | Morningglory plant response rating [8, 21] | Redroot pigweed plant response rating [9, 21] | Rape plant response rating [10, 21] | Sugarbeets plant response rating [12, 21]
4: B. signalgrass plant response rating [3, 21] | Corn plant response rating [5, 23] | Redroot pigweed plant response rating [9, 18] | Redroot pigweed plant response rating [9, 24] | Soybean plant response rating [11, 21] | Velvetleaf plant response rating [13, 22]
7: Blackgrass plant response rating [2, 21] | B. signalgrass plant response rating [3, 22] | Morningglory plant response rating [8, 22] | Rape plant response rating [10, 22] | Rape plant response rating [10, 23] | Sugarbeets plant response rating [12, 22] | Sugarbeets plant response rating [12, 23]
0: Plant response rating, Bedstraw [1, 19] | Bedstraw plant response rating [1, 20] | Bedstraw plant response rating [1, 23] | Blackgrass plant response rating [2, 24] | B. signalgrass plant response rating ([3]; Preemergence, Rate 62 g/ha, scale of 0 to 10 where 0 is no effect and 10 is complete control) | Plant response rating, Cocklebur [4, 17] | Cocklebur plant response rating [4, 18] | Plant response rating, Cocklebur [4, 19] | Cocklebur plant response rating [4, 20] | Cocklebur plant response rating [4, 24] | Cocklebur plant response rating [4, 21] | Cocklebur plant response rating [4, 23] | Plant response rating, Corn [5, 17] | Corn plant response rating [5, 18] | Plant response rating, Corn [5, 19] | Corn plant response rating [5, 20] | Corn plant response rating [5, 24] | Corn plant response rating [5, 21] | Corn plant response rating [5, 22] | Plant response rating, Morningglory [8, 17] | Plant response rating, Morningglory [8, 19] | Morningglory plant response rating [8, 20] | Morningglory plant response rating [8, 24] | Morningglory plant response rating [8, 23] | Plant response rating, Rape [10, 17] | Plant response rating, Rape [10, 19] | Rape plant response rating [10, 20] | Rape plant response rating [10, 24] | Plant response rating, Soybean [11, 19] | Soybean plant response rating [11, 20] | Soybean plant response rating [11, 24] | Soybean plant response rating [11, 23] | Plant response rating, Sugarbeets [12, 17] | Plant response rating, Sugarbeets [12, 19] | Sugarbeets plant response rating [12, 24] | Plant response rating, Velvetleaf [13, 17] | Velvetleaf plant response rating [13, 18] | Plant response rating, Velvetleaf [13, 19] | Velvetleaf plant response rating [13, 20] | Velvetleaf plant response rating [13, 24] | Velvetleaf plant response rating [13, 21] | Velvetleaf plant response rating [13, 23] | Plant response rating, Wheat [14, 17] | Wheat plant response rating [14, 18] | Plant response rating, Wheat [14, 19] | Wheat plant response rating [14, 20] | Wheat plant response rating [14, 24] | Wheat plant response rating [14, 21] | Plant response rating, Wild oats [15, 17] | Wild oats plant response rating [15, 18] | Wild oats plant response rating [15, 24] | Wild oats plant response rating [15, 21] | Wild oats plant response rating [15, 22] | Plant response rating, Nutsedge [16, 17] | Nutsedge plant response rating [16, 18] | Plant response rating, Nutsedge [16, 19] | Nutsedge plant response rating [16, 20] | Nutsedge plant response rating [16, 24] | Nutsedge plant response rating [16, 21] | Nutsedge plant response rating [16, 22]
9: Bedstraw plant response rating [1, 21] | Bedstraw plant response rating [1, 22] | Blackgrass plant response rating [2, 23] | Crabgrass plant response rating [6, 24] | Crabgrass plant response rating [6, 22] | Giant foxtail plant response rating [7, 24] | Giant foxtail plant response rating [7, 22]
5: Plant response rating, Bedstraw [1, 17] | Plant response rating, Blackgrass [2, 17] | Soybean plant response rating [11, 22] | Wheat plant response rating [14, 23]
10: B. signalgrass plant response rating [3, 23] | Plant response rating, Crabgrass [6, 19] | Crabgrass plant response rating [6, 20] | Crabgrass plant response rating [6, 23] | Plant response rating, Giant foxtail [7, 19] | Giant foxtail plant response rating [7, 20] | Giant foxtail plant response rating [7, 23] | Plant response rating, Redroot pigweed [9, 19] | Redroot pigweed plant response rating [9, 20] | Redroot pigweed plant response rating [9, 23]
8: Blackgrass plant response rating [2, 22] | Crabgrass plant response rating [6, 21] | Giant foxtail plant response rating [7, 21] | Redroot pigweed plant response rating [9, 22] | Wild oats plant response rating [15, 23]
